{"source": "patent US9952300B2", "about": "“Dynamic contrast enhanced MRI method and agents for the assessment of the macromolecular transport within pathologic tissues” (BRACCO IMAGING S.P.A., priority 2012, dated 2018)", "key": {"[1]": {"system": "A431 human epidermoid carcinoma xenografts", "test": "DCE-MRI with B22956/1 in A431 xenografts 24 h after PTX or vehicle (Example 5)", "format": "in vivo, NCR athymic nude mice", "method": "Human epidermoid carcinoma cell line (A431) (supplied by ATCC) were cultured in DMEM (Dulbecco's Modified Eagle Medium) High Glucose medium (4.5 g/L glucose) (Sigma-Aldrich, Steinheim, Germany), supplemented with 10% heat-inactivated foetal bovine serum (Lonza, Verviers, Belgium), 2 mM glutamine (Lonza, Verviers, Belgium), 100 IU/mL penicillin and 100 μg/mL streptomycin (Lonza, Verviers, Belgium) and maintained in a humidified atmosphere with 5% CO2 at 37° C. Exponentially growing cells were harvested and washed two times with PBS. Two million A431 cells were resuspended in 0.1 mL PBS and injected subcutaneously in the right and left flank of each of the 6 week old female mice. Tumors development were followed daily after inoculation, initially by palpation and by caliper once the mass will be established, until the day of the sacrifice. Mice were distributed randomly into 2 groups (Treated and Control) on the day of initial drug treatment when the average tumor diameter reached 7-8 mm, measured by caliper.\nPaclitaxel (PTX) (Indena S.p.A., Milan, Italy): PTX solution was prepared in 50% Cremophor EL and 50% ethanol as described in Example 4 and further diluted in saline immediately before use to a final concentration of 2 mg/mL. PTX was administered intravenously (i.v., singular administration) at a dose of 20 mg/kg.\nTo this extent, 8 mice were divided into 2 groups; 2 animals of each of the two obtained groups were treated with PTX and 2 with vehicle (CTRL). Treatments started 14 days after the tumor implant, when the tumor reached a diameter in the range 7-8 mm, measured by caliper. The animals were administered with PTX or with CTRL at day 14 from the tumor implant (considered as DAY1). 24 hours after the treatment with PTX or CTRL (DAY2) each animal was injected with B22956/1 (used as non-limiting example of contrast agent according to the invention) and imaged with DCE-MRI. MRI imaging was performed pre-contrast and at different time points post-contrast agents administration. […] At DAY3 all the mice were imaged in vivo by Optical Imaging (01); then FITC-Albumin (10 mg/mL) was injected and 5 minutes later the animals were sacrificed. Tumors were excised and a second Optical Imaging acquisition was performed ex vivo. Finally tumors were prepared for the histological examination.\nB22956/1, (Bracco Imaging S.p.A., obtained as above referred) was used as MRI contrast agent (CA). B22956/1 was intravenously injected at the dose of 100 μmol/kg, with an administration volume of 4 mL/kg.\n24 hours after the treatment with PTX or CTRL each animal was injected with the CA (B22956/1) and imaged with DCE-MRI. The contrast agent was injected intravenously at an injection rate of about 1 mL/min through a catheter placed in the tail vein of the animal. For MR imaging experiments, animals were pre-anaesthetized with isofluorane gas (about 1%) in a mixture of 33% O2 and 66% N2O and the anesthesia was then maintained by adjustment of gas level in function of breath rate. MRI imaging was performed at different time points post-contrast agents administration. In particular, pre-contrast coronal and axial Rare T2-weighted anatomical images were acquired with the optimized parameters for high resolution with a good contrast, to detect the tumour mass. 3D FLASH images (Fast Low Angle Shot; TR about 6-7 milliseconds) with variable flip angle θ (FA=5-90° were acquired before contrast agent injection to estimate the tumour and muscle longitudinal relaxation time by using matrix 128×128×8, slice thickness ˜1.5 mm, FOV ˜3.0×3.0 cm. The same sequences (FA=20°, TR about 6-7 milliseconds) were then acquired to follow CA dynamic in tumor and blood vessels after CA i.v. injection. Flow artifacts were avoided by placing two thick saturation bands just above and below the measured slices. […]"}, "[2]": {"system": "A431 human epidermoid carcinoma xenografts", "test": "Fluorescence microscopy of Cy5-CTX distribution in A431 xenografts after PTX or vehicle (Example 5)", "format": "in vivo, NCR athymic nude mice", "method": "Cy5-CTX: The fluorescently labeled monoclonal Antibody (mAb) was prepared in house, by conjugating the monoclonal antibody (3.51 mg/mL in citrate-TEA buffer, obtained by buffer exchange from the commercial glycine solution of the mAb) with the commercially available fluorescent cyanine Cy5-NHS ester by using typical and well experienced procedures known in the art. Molar ratio dye/mAb in the conjugated product=2. Albumin-Fluoresceinisothiocyanate: (Albumin-FITC, by Sigma-Aldrich, 10 mg/mL solution). Optical Imaging Protocol […]\nForty-five histological images were acquired, corresponding to approximately 3 sections per tumor. Each image consisted in a stack of two channels corresponding to the fluorescence signal obtained from the dye Cyanine 5 (Cy5) and Fluorescein isothiocyanate (FITC).\nThe spatial distribution of the Cy5-CTX staining was analyzed calculating for each pixel its distance from the nearest vessel wall using FITC-Alb images (Distance Map FIG. 9 panel c). In the corresponding Cy5-CTX image, the Cy5-CTX signal was then expressed as a function of the pixel distance from the vessel wall (CTX decay curve). […]\nFluorescent CTX decay curves were measured for each tumor section acquired by fluorescence microscopy over distances ranging from 0 to about 700 μm from the nearest vessel wall. […]"}, "[3]": {"settings": "A431 tumors 24 h after PTX 20 mg/kg i.v., mean of 8 tumors"}}, "note": "Marks after values point to notes of the source that are not given here."}
{"molecule": "C[C@H](CCC(=O)[O-])[C@H]1CC[C@H]2[C@@H]3CC[C@@H]4C[C@@H](NC(=O)CC[C@@H](C(=O)[O-])N(CCN(CC(=O)[O-])CC(=O)[O-])CCN(CC(=O)[O-])CC(=O)[O-])CC[C@]4(C)[C@H]3C[C@H](O)[C@]12C.[Gd+3].[Na+].[Na+].[Na+]", "note": "[B22956/1, Gadocoletic acid trisodium salt]", "values": [{"measurement": "extravasation of the contrast agent within the first minute after injection", "setting": "[1]; mouse, in vivo", "value": "negligible"}]}
{"molecule": "CC(=O)O[C@H]1C(=O)[C@@]2(C)[C@H]([C@H](OC(=O)c3ccccc3)[C@]3(O)C[C@H](OC(=O)[C@H](O)[C@@H](NC(=O)c4ccccc4)c4ccccc4)C(C)=C1C3(C)C)[C@]1(OC(C)=O)CO[C@@H]1C[C@@H]2O", "note": "[PTX, Paclitaxel]", "values": [{"measurement": "AUC10.20 (of B22956/1), Mean", "setting": "[1]; A431 tumors 24 h after PTX 20 mg/kg i.v., 10 to 20 min post injection, mean of 8 tumors", "value": "27*"}, {"measurement": "AUC20.30 (of B22956/1), Mean", "setting": "[1]; A431 tumors 24 h after PTX 20 mg/kg i.v., 20 to 30 min post injection, mean of 8 tumors", "value": "25.3**"}, {"measurement": "ktrans (of B22956/1), Mean", "setting": "[1]; A431 tumors 24 h after PTX 20 mg/kg i.v., B22956/1 100 μmol/kg, mean of 8 tumors", "value": "0.0255*"}, {"measurement": "AVGENH (of B22956/1), Mean", "setting": "[1]; [3]", "value": "54*"}, {"measurement": "EARLYAUCRATIO (of B22956/1), Mean", "setting": "[1]; [3]", "value": 0.036}, {"measurement": "IAUC1 (of B22956/1), Mean", "setting": "[1]; [3]", "value": 0.8}, {"measurement": "LATEAUCRATIO (of B22956/1), Mean", "setting": "[1]; [3]", "value": "1.14**"}, {"measurement": "fPV (of B22956/1), Mean", "setting": "[1]; [3]", "value": 0.038}, {"measurement": "kep (of B22956/1), Mean", "setting": "[1]; [3]", "value": 0.112}, {"measurement": "Cy5-CTX fluorescence (fAUC), treated versus untreated tumors", "setting": "[2]; between 400 and about 700 μm from the nearest vessel wall", "value": "higher fluorescence"}, {"measurement": "Cy5-CTX fAUC, treated versus untreated tumors", "setting": "[2]; whole tested range from 0 to 700 μm", "value": "No differences"}]}
